In brackets after ≈: the same amount, converted by molar mass.
Assay: approximate solubility at room temperature in ethyl acetate
Assay type: physicochemical
Settings: organic solvent or mixture
Description: A stirred suspension of dried (less than 5 weight percent of water), crude cis,cis or cis,trans muconic acid (200 g) in tetrahydrofuran (THF) (1.8 liter (l)) is heated to 50° C., Within 45 minutes at 50° C. most of the solid dissolves. Activated charcoal (35 g) is added. After 1 hour, the hot suspension is clarified by filtration through a bed of Celite™ diatomaceous earth. The filtrate is evaporated to dryness and the residue is dried under high vacuum to yield pure cis,cis or cis,trans muconic acid (166 g, 83 percent mass recovery). In the case of cis,cis muconic acid, any traces of cis,trans muconic acid can be removed by resuspending the solid twice in refluxing ethyl acetate, which is removed each time by decantation from the cooled solution. The approximate solubilities at room temperature in ethyl acetate are 1 mg/ml for cis,cis muconic acid, 5 mg/ml for cis,trans muconic acid, and 0.1 mg/ml for trans,trans muconic acid.

With `O=C(O)/C=C\C=C/C(=O)O` [cis,cis muconic acid] as the compound, how does the solubility read?
The solubility was about 1000 µg/mL (≈ 7.04 mM).

With `O=C(O)/C=C/C=C/C(=O)O` [trans,trans muconic acid] as the compound, how does the solubility read?
Its solubility is about 100 µg/mL (≈ 0.704 mM).

Which solubility does the source give for `O=C(O)/C=C\C=C\C(=O)O` [cis,trans muconic acid] here?
The solubility was about 5000 µg/mL (≈ 35.2 mM).

— patent publication US20110282078A1, “CYCLOHEXENE 1,4 -CARBOXYLATES” (Draths Corporation, priority 2009, published 2011)
